In patent US20170189419A1, “PHARMACEUTICAL COMPOSITION FOR TREATING PROSTATE CANCER” (MA SHEN KAI RUEI CO., LTD., priority 2015, published 2017):

Columns and labels:
[1] = tested on: human prostate-cancer cells PC3; assay: MTT survival assay, PC3 prostate cancer cells; format: cell-based; details: for half-maximal inhibitory concentration (IC50): PC3 cells; for survival rate / growth of prostate cancer cell: PC-3 cells, compound isolated from Extraction A
From the text: (§1) According to the present invention, the effects such as treating Prostate cancer, inhibiting the growth of Prostate cancer cell and others, of Antroquinonol B (AnQB) and/or Anctin K (AnK) may be tested by using any of the test methods used in the prior arts, for example, MTT assay of using 3-(4, 5-dimethylthiazol-2-yl)-2, S-diphenyl tetrazolium bromide (MTT) to determine cell survival rates of Prostate cancer cell lines.
(§2) The Antroquinonol B (AnQB) and Anctin K (AnK) separately isolated from the Extraction A of Example 1 were added into the culture media of human prostate-cancer cells, PC3 or DU-145, to test for tumor cell survival by using anti-cancer drug screen model. This survival assay was carried out with the widely known MTT (3-[4,5-dimethylthiazol-2-yl]2,5-diphenyltetrazolium bromide) assay.
(§3) The human prostate cancer cell lines, PC-3 and DU-145 were cultivated in media containing fetal calf serum for 18 hours. The proliferated cells were washed once with PBS, then treated with 1× trypsin-EDTA and centrifuged at 2500 rpm for […]. The supernatant was discarded and the cell pellet was re-suspended in 200 ml of fresh culture medium by gently shaking. The cells were placed in a 96-well plate.
(§4) Subsequently, the plates were read on an ELISA reader to determine the survival rates. The half maximal inhibitory concentration (IC50) values were calculated and results of ex vivo survival assay were thus obtained.
(§5) By using the same manner as the method described above, respectively human Prostate cancer cell line PC-3 and DU-145 was cultured. After then, the pharmaceutical compositions A˜F of the present invention was applied separately, and then MTT assay for each sample was measured to assess the inhibition effectiveness of various cancer cell activity while using pharmaceutical compositions A˜F of the present invention.

[2] = tested on: human prostate-cancer cells DU-145; assay: MTT survival assay, DU-145 prostate cancer cells; format: cell-based; details: DU-145 cells; for survival rate / growth of prostate cancer cell: compound isolated from Extraction A
From the text: as §1, §2, §3, §4, §5

| SMILES | half-maximal inhibitory concentration (IC50) [1] | survival rate / growth of prostate cancer cell [1] | half-maximal inhibitory concentration (IC50) [2] | survival rate / growth of prostate cancer cell [2] |
| --- | --- | --- | --- | --- |
| C=C(CC[C@@H](C(=O)O)[C@H]1CC[C@@]2(C)C3=CC[C@H]4C(C)(C)[C@@H](O)CC[C@]4(C)C3=CC[C@]12C)C(C)C [Anctin K] | relatively low | can inhibit the growth | relatively low | can inhibit the growth |
| COC1=C(OC)[C@H](O)[C@H](C/C=C(\C)CC/C=C(/C)C/C=C/C(C)(C)O)[C@@H](C)C1=O [Antroquinonol B] | relatively low | can inhibit the growth | relatively low | can inhibit the growth |
